Where a name gives a salt, the structure may show the parent alone.
Tests used:
[1] = tested on: LPS-activated microglia cells; assay: RNA-sequencing of LPS-activated microglia cells treated with drug; format: cell-based, mouse; settings: 30 µM DMF
Method: Microglia cells were activated with LPS and treated with the same drug concentrations at the same timepoints. Each experiment was repeated three times. RNA was extracted using the Maxwell® 16 LEV simplyRNA Cells Kit and the robotic platform Maxwell® 16 (both from Promega Biotech Ibérica) following the manufacturer’s instructions. RNA-sequencing was performed as previously described using the NovaSeq 6000 Sequencing System (Illumina, San Diego, CA, USA) by pair-end (150 x 2) and at a sequencing depth of 20 million reads per sample [60]. FastQC v0.12.1 and Cutadapt v4.4 were used for quality control of the raw reads and removal of the adapter sequences, respectively. Trimmomatic v0.39 was employed to further select trimmed reads larger than 20 nucleotides and with a sequencing quality score greater than 30 [62]. Reads were aligned with HISAT2 v2.2.1 to the mouse or rat genome assemblies GRCm39 and mRatBN7.2, respectively. Mapped reads were annotated using Ensembl gene annotation v110 for the mouse genome and v111 for the rat genome and counts quantified using HTSeq v2.0.3 [63]. Gene counts were analyzed using principal components with custom R scripts (R version 4.3.1). DESeq2 v1.40.2 was used for differential expression analysis.

neurons = assay: Neuronal apoptosis (TUNEL) induced by conditioned medium of LPS-activated microglia; format: cell-based, Wistar rats; settings: neurons pre-treated 4 h, then 4 h with supernatant of LPS + drug microglia (48 h)
Method: Given that physiologically, if any of the drugs enter the BBB, both the neurons and microglia will be exposed to them, we decided to study the synergistic effects (direct antioxidant properties in neurons with indirect anti-inflammatory effects in microglia) of the drugs in both cells. […] Representative confocal microscopy images of the apoptosis assay are shown in Supplementary Figure S2.
The apoptosis of neurons was determined using the DeadEnd™ Fluorometric TUNEL System (Promega Biotech Ibérica, Madrid, Spain) following the manufacturer’s instructions. Neurons were seeded on glass coverslips previously treated with 1 mg/mL of poly-L-lysine at a density of 500,000 cells/well. […] Then, the supernatants of 48 h LPS-treated or LPS + drug (at the same drug concentrations as in neurons) microglia cells were added to the neuronal culture and incubated for an additional 4 h. Apoptosis was determined using Leica TCS SP5 confocal microscopy and quantified using ImageJ software. For each experimental condition, five random fields were captured to count the number of positive fluorescent cells (apoptotic) divided by the total number of cells identified by the nuclear fluorescent staining TO-PRO. Each experiment was repeated three times.

NF-kB p65 = NF-kB p65 nuclear translocation by immunofluorescence in LPS-activated microglia; format: cell-based, murine; settings: LPS + drug 30 min
Method: Lipopolysaccharide (LPS) from Escherichia coli 026:B6 in an aqueous solution (Thermo Fisher Scientific) was used as proinflammatory stimuli in microglia at a final concentration of 600 ng/mL. For the LPS experiments, the concentration of fetal bovine serum in the microglia culture medium was reduced to 0.1% immediately before drug treatment. All of the compounds were titrated in their respective vehicle and diluted into the culture media for cell treatments. The final concentration of vehicle (DMSO, EtOH or H2O) was consistent for all treated cells (0.2%).
For the immunofluorescence experiments, neurons and microglia were directly seeded on glass coverslips previously treated with 1 mg/mL of poly-L-lysine. […] After the drug treatments, the cells were fixed on ice with 4% paraformaldehyde for 25 min and then permeabilized and blocked using 0.1% Triton X-100 (10 min) and 5% BSA (30 min), respectively. Cells were then incubated overnight with the primary antibodies and 1% BSA at 4 °C. The primary antibodies anti-Nrf2 (ab1375550) and anti-NF-kB p65 (ab16502) (both from Abcam, Cambridge, United Kingdom) were used at 1:200. After washing with PBS, cells were incubated with the fluorophore-conjugated secondary antibody anti-Rabbit IgG Alexa Fluor 488 (Thermo Fisher Scientific) at 1:500 for 1 h at room temperature. Cells were counterstained with the TO-PRO fluorescent dye (Thermo Fisher Scientific) to visualize the cell nuclei. Images were captured using the confocal microscope Leica TCS SP5 (Leica Microsystems, Wetzlar, Germany). For each experimental condition, five random fields were captured and analyzed using ImageJ software (National Institutes of Health, Maryland, DC, USA). Activation of Nrf2 or NF-kB was defined as nuclear translocation, measured by the increase in the mean fluorescence intensity (MFI) in the nucleus. Each experiment was repeated three times.

[2] = after oral intake of the therapeutic dose established for DMF; cited from earlier work

## C=C(C)[C@@H]1CCC(C)=C[C@H]1c1c(O)cc(CCCCC)cc1O [CBD, cannabidiol]
[1]; 4 h, 30 µM MMF, 6 µM CBD
  number of DEGs vs cells treated with LPS alone: 2
[1]; 24 h, 6 µM CBD
  number of downregulated DEGs vs LPS alone: 1265
  number of upregulated DEGs vs LPS alone: 1345
[1]; 24 h, 30 µM MMF, 6 µM CBD
  number of DEGs vs cells treated with LPS alone: 2610
neurons; 7 µM
  effect on neuronal apoptosis, in words: prevented neuronal apoptosis
NF-kB p65; 4 µM
  effect on LPS-induced NF-kB p65 nuclear translocation, in words: inhibition of NF-kB p65
NF-kB p65; 6 µM
  effect on LPS-induced NF-kB p65 nuclear translocation, in words: inhibition of NF-kB p65
NF-kB p65; CBD concentrations higher than 6 µM
  effect on LPS-induced NF-kB p65 nuclear translocation, in words: this inhibition was not achieved

## COC(=O)/C=C/C(=O)OC [DMF, Dimethyl fumarate]
[1]; 4 h, 30 µM MMF
  number of downregulated DEGs vs LPS alone: 340
  number of upregulated DEGs vs LPS alone: 202
[1]; 4 h, 30 µM MMF, 6 µM CBD
  number of DEGs vs cells treated with LPS alone: 542
[1]; 24 h
  number of DEGs with strong downregulation: 67
  number of DEGs with strong upregulation: 128
[1]; 24 h, 6 µM CBD
  number of downregulated DEGs vs LPS alone: 146
  number of upregulated DEGs vs LPS alone: 230
[1]; 24 h, 30 µM MMF, 6 µM CBD
  number of DEGs vs cells treated with LPS alone: 376
neurons; 10 µM
  effect on neuronal apoptosis, in words: significantly prevented neuronal apoptosis
neurons; 30 µM
  effect on neuronal apoptosis, in words: not at 30 µM

## COC(=O)/C=C/C(=O)O [MMF, monomethyl fumarate]
[2]
  concentration of MMF detected in the brain: approximately 100 µM
[1]; 4 h, 30 µM MMF
  number of downregulated DEGs vs LPS alone: three
  number of upregulated DEGs vs LPS alone: five
[1]; 4 h, 30 µM MMF, 6 µM CBD
  number of DEGs vs cells treated with LPS alone: eight
[1]; 24 h, 30 µM MMF, 6 µM CBD
  number of DEGs vs cells treated with LPS alone: could not detect any transcriptomic changes
neurons; 10 µM
  effect on neuronal apoptosis, in words: also prevented neuronal apoptosis
neurons; 30 µM
  effect on neuronal apoptosis, in words: also protected neurons from apoptosis
NF-kB p65; any of the studied concentrations
  effect on LPS-induced NF-kB p65 nuclear translocation, in words: did not prevent the activation of NF-KB
